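Where inhibition never reached the appropriate level, the endpoint shown equals the highest concentration tested. Otherwise, values were interpolated linearly from a five-concentration, 48-hour dose response in 96-well plates. The concentration for full growth arrest is given as TGI.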
Key:
Assay in all cases: DTP human tumour cell line panel, 48 h
[1] = tested on: MOLT-4 leukemia
[2] = tested on: IGROV1 ovarian
[3] = tested on: MALME-3M melanoma
[4] = tested on: NCI-H23 lung
[5] = tested on: UACC-257 melanoma
[6] = tested on: COLO 205 colon
[7] = tested on: LOX IMVI melanoma
[8] = tested on: NCI-H460 lung
[9] = tested on: T-47D breast
[10] = tested on: RXF 393 renal

Row | Compound | TGI [1] [µM] | TGI [2] [µM] | TGI [3] [µM] | TGI [4] [µM] | TGI [5] [µM] | TGI [6] [µM] | TGI [7] [µM] | TGI [8] [µM] | TGI [9] [µM] | TGI [10] [µM]
1 | C=CCn1c(=S)sc2c(=O)[nH]cnc21 | > 100 | > 100 | > 100 | > 100 | > 100 | > 100 | > 100 | > 100 |  | 
2 | N#C/C(N)=C(\C#N)N=CNc1ccccc1N | > 100 | > 100 | > 100 | > 100 | > 100 | > 100 | > 100 | > 100 | > 100 | 
3 | COc1ccc(-n2nnnc2C2(Nc3ccccc3)CCN(Cc3ccccc3)CC2)cc1 |  | 41.2 | 27.3 | 57.9 | 28.9 | 20 | 24 | 42 | 45.2 | 33.8
4 | O=C(NO)c1ccc(OCc2ccccc2)cc1 | > 100 | > 100 |  | 28.1 | > 100 | 77.6 | 55.8 | > 100 | 81.5 | > 100
5 | O=C1CCC2(c3ccc(F)cc3)Nc3ncncc3N12 (configuration not stated) | > 10 | > 10 | > 10 | > 10 | > 10 |  | > 10 | > 10 |  | 
6 | C/C(=C\c1ccc2c(c1)OCO2)[N+](=O)[O-] | 1.13 | 5.89 | 5.68 | 7.54 | 5.54 | 4.2 |  | > 100 | 5.14 | 
7 | CC1(CC(=O)OC(C#C[Si](C)(C)C)Cc2ccccc2)OCCO1 (configuration not stated) | > 100 | > 100 | > 100 | > 100 | > 100 | > 100 | > 100 |  | > 100 | > 100
8 | Cc1ccccc1Nc1cn(CCOc2ccccc2)c(=O)n(CCOc2ccccc2)c1=O | > 100 | > 100 | 63.7 | > 100 | > 100 | > 100 | > 100 | > 100 |  | > 100
9 | CC1OC2OC3C(OCC(O)C3O)OC(=O)[C@]34CCC(C)(C)CC3C3=CCC5[C@@]6(C)C[C@H](O)[C@H](OC7OC(CO)C(O)C(O)C7OC7OC(COC(=O)CC(C)(O)CC(=O)OC1C(O)C2O)C(O)C(O)C7O)[C@@](C)(CO)C6CC[C@@]5(C)[C@]3(C)CC4 (some centres not stated) |  | 2.54 |  | 3.08 | 2.64 | 2.98 | 2.91 | 4.45 | 7.23 | 
10 | Cn1c(=O)c2c(nc3sc4ncccc4c(=O)n32)n(C)c1=O | > 100 | > 100 |  | > 100 | > 100 | > 100 | > 100 | > 100 | > 100 | > 100
11 | O=C(CN1CCCC1)Nc1ccc2sc3ccccc3c(=O)c2n1 | 15.6 | 66.5 |  | 99.1 |  | 44.8 | 37.3 | > 100 | > 100 | 
12 | C/C(=C\[C@H]1C[C@@H]([C@@H]2CC[C@]34C[C@]23C=C[C@@H]2[C@@]3(C)CC=C5C[C@@H](c6ccccc6)OC[C@]5(C)[C@@H]3C[C@@H](O)[C@]24C)C(=O)O1)CO | > 100 | 20.5 | 82.5 | 36 | 30.7 | 5.11 | > 100 |  | > 100 | > 100
13 | CCCCC/C(=N\c1nc[nH]c1C(N)=O)OCC | > 100 | > 100 | > 100 | > 100 | > 100 | > 100 | > 100 | > 100 |  | > 100
14 | CCC(/C=C/c1ccccc1)=N\N=C(\C=C\c1ccccc1)CC | > 100 | > 100 | > 100 | > 100 | > 100 | > 100 | > 100 | > 100 |  | 
15 | CC1(c2nc3cc(Cl)c(Cl)cc3[nH]2)CCC(C(=O)O)C(C)(C)O1 (configuration not stated) | > 100 | > 100 | > 100 | > 100 | > 100 | > 100 | > 100 |  | > 100 | > 100
16 | O=C(CN1C(=O)c2ccccc2C1=O)OCC1CCCN2CCCCC12 (configuration not stated) | > 100 |  | > 100 | > 100 | > 100 | > 100 | > 100 | > 100 | > 100 | > 100
17 | C=C1C(=O)O[C@H]2[C@H]3O[C@@H](C[C@@H]12)[C@](C)(O)CCCC(C)=CCC[C@H]3C | 8.09 | 5.05 |  | 35.3 | 22.7 | 21 | 48.2 | 30.5 | 44.6 | 20.3
18 | COc1cc(OC)nc(NC(=O)NS(=O)(=O)c2cccc3ncn(C)c(=O)c23)n1 | > 100 | > 100 | > 100 | > 100 | > 100 | > 100 | > 100 |  | > 100 | > 100
19 | CCOC(=O)c1cc(Cl)ccc1OC(N)=O | > 100 | > 100 |  | > 100 | > 100 | > 100 | > 100 | > 100 |  | > 100
20 | CC(=O)OCC(OC(C)=O)C(OC(C)=O)C(OC(C)=O)C(/C=N\Nc1nc2ccccc2c(=O)[nH]1)OC(C)=O (configuration not stated) | > 100 |  | > 100 | > 100 | > 100 | > 100 | > 100 | > 100 | > 100 | > 100
21 | N.N.N.N.O=S(=O)([O-])[O-].[Co+3].[OH3+].[OH3+] | > 100 | > 100 | > 100 | > 100 | > 100 | > 100 | > 100 | > 100 |  | 
22 | O=C(O)CCCC#CCCCC(=O)O |  | > 100 | > 100 | > 100 | > 100 | > 100 | > 100 | > 100 | > 100 | > 100
